In ChEMBL document CHEMBL5352441, “Modulation of FLT3-ITD and CDK9 in acute myeloid leukaemia cells by novel proteolysis targeting chimera (PROTAC)” (2022) one finds Activity, GI50 and inhibition data, which are given here for one compound.

Experiment [1] deals with Protein cereblon/Cyclin-dependent kinase 9 (Homo sapiens) (UniProt P50750+Q96SW2). Kind of experiment: PROTAC activity at CRBN/CDK9 in human MV4-11 cells harboring FLT3-ITD mutation assessed as induction of protein degradation incubated for 16 hrs by immunoblot analysis. In kind it is cell-based. The following applies: dose 0.004-2.5 µM.
Sequence of Protein cereblon/Cyclin-dependent kinase 9 (Homo sapiens) (P50750 whole entry, looked up): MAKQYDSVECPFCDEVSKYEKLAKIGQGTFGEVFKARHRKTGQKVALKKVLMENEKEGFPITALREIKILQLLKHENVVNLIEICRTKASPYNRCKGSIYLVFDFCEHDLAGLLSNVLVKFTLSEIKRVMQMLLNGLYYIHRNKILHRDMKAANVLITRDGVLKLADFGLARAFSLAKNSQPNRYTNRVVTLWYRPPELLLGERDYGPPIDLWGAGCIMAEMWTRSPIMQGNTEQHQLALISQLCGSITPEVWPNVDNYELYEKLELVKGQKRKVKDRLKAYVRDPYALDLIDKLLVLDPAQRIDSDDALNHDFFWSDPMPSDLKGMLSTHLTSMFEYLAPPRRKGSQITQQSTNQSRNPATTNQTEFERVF
Sequence of Protein cereblon/Cyclin-dependent kinase 9 (Homo sapiens) (Q96SW2 whole entry, looked up): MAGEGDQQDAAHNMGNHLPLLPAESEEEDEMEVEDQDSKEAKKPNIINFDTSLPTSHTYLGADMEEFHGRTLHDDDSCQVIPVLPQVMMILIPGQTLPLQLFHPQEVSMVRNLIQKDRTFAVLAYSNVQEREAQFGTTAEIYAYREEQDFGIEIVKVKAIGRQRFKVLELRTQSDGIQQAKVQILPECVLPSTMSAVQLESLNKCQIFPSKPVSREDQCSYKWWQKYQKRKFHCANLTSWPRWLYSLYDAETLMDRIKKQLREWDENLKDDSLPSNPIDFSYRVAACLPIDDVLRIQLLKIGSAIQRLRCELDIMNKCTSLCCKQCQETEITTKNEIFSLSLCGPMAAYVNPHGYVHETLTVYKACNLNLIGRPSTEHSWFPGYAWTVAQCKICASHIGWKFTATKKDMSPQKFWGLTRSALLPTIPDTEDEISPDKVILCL
In experiment [2] the test system is MV4-11. Kind of experiment: Antiproliferative activity against CRBN-deficient human MV4-11 cells assessed as cell growth inhibition incubated for 72 hrs by resazurin dye based fluorescence analysis. In kind it is functional.
Experiment [3] deals with MV4-11. The experiment is described as follows: Induction of cell cycle arrest in CRBN-deficient human MV4-11 cells assessed as accumulation of cells at sub-G1 phase at 2.5 uM incubated for 16 hrs by PI staining based flow cytometry analysis (reference value: 12.52%). Type of experiment: functional. (Flow cytometry measures light scatter and fluorescence of single cells or particles in a stream.)

Experiment [4] deals with MV4-11. Kind of experiment: Induction of apoptosis in human MV4-11 cells assessed as activation of caspase 7 incubated for 16 hrs in presence of Ac-DEVD-AMC by fluorescence microplate reader analysis. Type of experiment: functional, cell-based. The following applies: dose 0.004-2.5 µM.
The target of experiment [5] is Protein cereblon/Receptor-type tyrosine-protein kinase FLT3 (Homo sapiens) (UniProt P36888+Q96SW2). The experiment is described as follows: PROTAC activity at CRBN/FLT3 in human MV4-11 cells at 0.1 to 0.5 uM preincubated for 90 mins with MG132 followed by compound addition and further incubated for 16 hrs by immunoblot analysis. Type of experiment: cell-based. Conditions: dose 0.1-0.5 µM.
Sequence of Protein cereblon/Receptor-type tyrosine-protein kinase FLT3 (Homo sapiens) (P36888 27-993 limits assumed): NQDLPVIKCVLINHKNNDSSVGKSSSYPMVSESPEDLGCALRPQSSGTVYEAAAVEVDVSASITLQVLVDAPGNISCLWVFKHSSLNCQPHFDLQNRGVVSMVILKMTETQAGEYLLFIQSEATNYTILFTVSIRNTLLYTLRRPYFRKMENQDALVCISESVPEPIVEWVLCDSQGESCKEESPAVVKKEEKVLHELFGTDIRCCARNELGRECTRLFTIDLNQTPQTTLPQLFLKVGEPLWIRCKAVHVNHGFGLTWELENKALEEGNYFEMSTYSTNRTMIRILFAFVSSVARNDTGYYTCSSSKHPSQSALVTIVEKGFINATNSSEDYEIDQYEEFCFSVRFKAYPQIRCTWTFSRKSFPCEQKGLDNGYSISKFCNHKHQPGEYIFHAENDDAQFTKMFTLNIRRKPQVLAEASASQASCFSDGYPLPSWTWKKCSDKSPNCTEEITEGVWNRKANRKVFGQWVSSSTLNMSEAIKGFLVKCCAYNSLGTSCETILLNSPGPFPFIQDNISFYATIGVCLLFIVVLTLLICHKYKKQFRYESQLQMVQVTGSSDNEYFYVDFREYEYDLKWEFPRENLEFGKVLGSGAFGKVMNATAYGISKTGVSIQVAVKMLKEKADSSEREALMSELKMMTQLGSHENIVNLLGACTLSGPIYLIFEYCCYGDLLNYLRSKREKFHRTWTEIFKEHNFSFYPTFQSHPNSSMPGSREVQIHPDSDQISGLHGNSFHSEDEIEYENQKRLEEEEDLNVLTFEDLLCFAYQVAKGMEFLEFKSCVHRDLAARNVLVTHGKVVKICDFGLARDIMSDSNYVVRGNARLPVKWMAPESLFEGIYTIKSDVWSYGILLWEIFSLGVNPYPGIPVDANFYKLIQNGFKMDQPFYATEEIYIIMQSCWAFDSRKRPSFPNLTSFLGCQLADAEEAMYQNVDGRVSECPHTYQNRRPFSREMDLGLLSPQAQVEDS
Sequence of Protein cereblon/Receptor-type tyrosine-protein kinase FLT3 (Homo sapiens) (Q96SW2 whole entry partner): as the sequence (Q96SW2 whole entry, looked up) above

The test system of experiment [6] is MV4-11. The experiment is described as follows: Induction of cell cycle arrest in human MV4-11 cells assessed as accumulation of cells at G1 phase at 0.1 uM incubated for 16 hrs by PI staining based flow cytometry analysis (reference value: 62.97%). In kind it is functional.
A further experiment deals with THP-1. Kind of experiment: Antiproliferative activity against human THP-1 cells assessed as cell growth inhibition incubated for 72 hrs by resazurin dye based fluorescence analysis. Type of experiment: functional.
Experiment [7] has as its system MV4-11. Kind of experiment: Antiproliferative activity against human MV4-11 cells harboring FLT3-ITD mutation assessed as cell growth inhibition incubated for 72 hrs by resazurin dye based fluorescence analysis. Type of experiment: functional. Background: The colour change of resazurin is a common sign of viable cells or microbes.
The subject of experiment [8] is MV4-11. Kind of experiment: Induction of cell cycle arrest in human MV4-11 cells assessed as accumulation of cells at S phase at 0.5 uM incubated for 16 hrs by PI staining based flow cytometry analysis (reference value: 26.16%). Type of experiment: functional.
Experiment [9] relates to MV4-11. The experiment is described as follows: Induction of cell cycle arrest in human MV4-11 cells assessed as accumulation of cells at G1 phase at 0.5 uM incubated for 16 hrs by PI staining based flow cytometry analysis (reference value: 62.97%). In kind it is functional.
Experiment [10] addresses Receptor-type tyrosine-protein kinase FLT3 (Homo sapiens) (UniProt P36888). Kind of experiment: Stabilization of FLT3 in CRBN-deficient human MV4-11 at 0.004 to 2.5 uM incubated for 16 hrs by immunoblot analysis. Type of experiment: cell-based. The following applies: dose 0.004-2.5 µM. (In general: A western blot detects proteins with antibodies after separation by electrophoresis.)

The subject of experiment [11] is MV4-11. The experiment is described as follows: Induction of cell cycle arrest in human MV4-11 cells assessed as accumulation of cells at S phase at 2.5 uM incubated for 16 hrs by PI staining based flow cytometry analysis (reference value: 26.16%). Type of experiment: functional.
In experiment [12] the test system is MV4-11. Kind of experiment: Induction of cell cycle arrest in human MV4-11 cells assessed as accumulation of cells at subG1 phase at 0.5 uM incubated for 16 hrs by PI staining based flow cytometry analysis (reference value: 10.51%). Type of experiment: functional.
In experiment [13] the test system is MV4-11. The experiment is described as follows: Downregulation of Bcl-2 gene expression in human MV4-11 cells incubated for 4 hrs by qRT-PCR analysis. In kind it is functional, cell-based. The following applies: dose 0.004-2.5 µM.
The test system of experiment [14] is MV4-11. The experiment is described as follows: Induction of cell cycle arrest in human MV4-11 cells assessed as accumulation of cells at G1 phase at 0.004 uM incubated for 16 hrs by PI staining based flow cytometry analysis (reference value: 62.97%). Type of experiment: functional.
Experiment [15] deals with MV4-11. Kind of experiment: Induction of apoptosis in CRBN-deficient human MV4-11 cells assessed as activation of caspase 7 at 0.004 to 25 uM incubated for 16 hrs in presence of Ac-DEVD-AMC by fluorescence microplate reader analysis. In kind it is functional, cell-based. The following applies: dose 0.004-25 µM.
Experiment [16] concerns Receptor-type tyrosine-protein kinase FLT3 (Homo sapiens), P36888 [UNDEFINED MUTATION]. Kind of experiment: Inhibition of FLT3 autophosphorylation at Y589/591 residue in human MV4-11 cells harboring FLT3-ITD mutation at 0.004 to 2.5 uM incubated for 16 hrs by immunoblot analysis. In kind it is cell-based. Conditions: dose 0.004-2.5 µM.
Sequence of Receptor-type tyrosine-protein kinase FLT3 (Homo sapiens), P36888 [UNDEFINED MUTATION] (P36888 whole entry, looked up, change not shown): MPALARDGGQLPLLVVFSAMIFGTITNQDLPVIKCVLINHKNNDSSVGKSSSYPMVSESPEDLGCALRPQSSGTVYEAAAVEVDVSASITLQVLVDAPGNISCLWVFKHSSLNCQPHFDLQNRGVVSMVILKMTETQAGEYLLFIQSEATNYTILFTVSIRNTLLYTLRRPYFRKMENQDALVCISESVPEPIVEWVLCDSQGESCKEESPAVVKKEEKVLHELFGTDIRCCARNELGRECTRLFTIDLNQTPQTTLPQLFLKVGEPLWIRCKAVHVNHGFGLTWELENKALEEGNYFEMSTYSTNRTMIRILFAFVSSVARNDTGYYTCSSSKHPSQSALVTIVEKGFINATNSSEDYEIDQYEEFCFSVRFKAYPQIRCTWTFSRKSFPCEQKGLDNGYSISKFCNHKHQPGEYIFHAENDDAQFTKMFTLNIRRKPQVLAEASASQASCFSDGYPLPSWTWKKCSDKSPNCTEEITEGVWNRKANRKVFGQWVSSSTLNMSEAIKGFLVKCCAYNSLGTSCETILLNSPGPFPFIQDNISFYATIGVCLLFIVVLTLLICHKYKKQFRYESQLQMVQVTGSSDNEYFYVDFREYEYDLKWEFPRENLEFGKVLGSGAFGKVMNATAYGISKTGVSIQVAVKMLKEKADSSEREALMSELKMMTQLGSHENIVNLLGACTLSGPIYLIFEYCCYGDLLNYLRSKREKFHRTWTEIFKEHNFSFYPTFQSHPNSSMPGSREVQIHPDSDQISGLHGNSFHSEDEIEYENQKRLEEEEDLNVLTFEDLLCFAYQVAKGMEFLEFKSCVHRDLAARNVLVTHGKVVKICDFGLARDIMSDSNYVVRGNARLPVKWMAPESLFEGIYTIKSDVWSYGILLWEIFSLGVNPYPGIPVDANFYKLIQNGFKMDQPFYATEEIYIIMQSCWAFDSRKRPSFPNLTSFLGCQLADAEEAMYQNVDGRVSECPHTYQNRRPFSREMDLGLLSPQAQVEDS
Experiment [17] deals with MV4-11. Kind of experiment: Induction of cell cycle arrest in CRBN-deficient human MV4-11 cells assessed as accumulation of cells at G1 phase at 0.1 uM incubated for 16 hrs by PI staining based flow cytometry analysis (reference value: 54.05%). Type of experiment: functional.
For experiment [18], the system named is MV4-11. Kind of experiment: Induction of cell cycle arrest in human MV4-11 cells assessed as accumulation of cells at G1 phase at 0.02 uM incubated for 16 hrs by PI staining based flow cytometry analysis (reference value: 62.97%). In kind it is functional.
Experiment [19] concerns MV4-11. Kind of experiment: Induction of apoptosis in human MV4-11 cells assessed as PARP-1 cleavage incubated for 16 hrs in presence of Ac-DEVD-AMC by fluorescence microplate reader analysis. In kind it is functional, cell-based. The following applies: dose 0.004-2.5 µM.
A further experiment relates to RS4-11. The experiment is described as follows: Antiproliferative activity against human RS4-11 cells assessed as cell growth inhibition incubated for 72 hrs by resazurin dye based fluorescence analysis. Type of experiment: functional.
Experiment [20] has as its system MV4-11. The experiment is described as follows: Induction of cell cycle arrest in CRBN-deficient human MV4-11 cells assessed as accumulation of cells at S phase at 0.1 uM incubated for 16 hrs by PI staining based flow cytometry analysis (reference value: 36.91%). Type of experiment: functional.
Experiment [21] relates to MV4-11. The experiment is described as follows: Induction of apoptosis in CRBN-deficient human MV4-11 cells assessed as activation of caspase 3 at 0.004 to 25 uM incubated for 16 hrs in presence of Ac-DEVD-AMC by fluorescence microplate reader analysis. Type of experiment: functional, cell-based. Conditions: dose 0.004-25 µM.

Molecules are shown by their SMILES. Calls of active or inactive are those of the source. No cut-off for these calls is given here.

For orientation: GI50 means the concentration that inhibits growth by half.

Sequence of Receptor-type tyrosine-protein kinase FLT3 (Homo sapiens) (P36888 whole entry): as the sequence (P36888 whole entry, looked up, change not shown) above

Take `NC1CCC(Nc2nc(Nc3ccc(N4CCN(CCOCCOCCNC(=O)CNc5cccc6c5C(=O)N(C5CCC(=O)NC5=O)C6=O)CC4)cc3)c3ncn(C4CCCC4)c3n2)CC1` (stereo not drawn): the Activity entry in experiment [1] is “Dose-Dependent Effect”; in the experiment with MV4-11 [3], 20.31%; in the experiment with MV4-11 [4], “Dose-Dependent Effect”; in the experiment with MV4-11 [6], 89.61%; with MV4-11 [8] it was 18.55%; in the experiment with MV4-11 [9] it was 74.6%. Also, the Activity is 34.87% in the experiment on MV4-11 [11]; 58.62% with MV4-11 [12]; “Dose-Dependent Effect” in the experiment with MV4-11 [13]; 69.48% in the experiment on MV4-11 [14]; 90.54% in the experiment with MV4-11 [17]; 82.36% in the experiment with MV4-11 [18]. The Activity result in the experiment with MV4-11 [19] is “Dose-Dependent Effect”; in the experiment on MV4-11 [20], 6.07%. The 50% growth inhibitory concentration (GI50) was 119 nM with MV4-11 [2], 9990 nM in the experiment with THP-1, 47 nM in the experiment on MV4-11 [7] and 1010 nM in the experiment on RS4-11. Further, the result (in experiment [5]; in the experiment with MV4-11 [15]; in the experiment with MV4-11 [21]) was inactive. The outcome in experiment [10] was Active. Also, the inhibition entry in experiment [16] was “Active”.
